From patent US11877553B2, “Effects of a plurality of mutations to improve herbicide resistance/tolerance in rice” (priority 2017, dated 2024)

Assays:
Type in all cases: in vivo, rice
[1] = tested on: single trait mutant lines (P1003A205V, R0146G654E); assay: 16GH-T7 greenhouse Imazamox trial, injury in single trait mutant lines; details: Imazamox 0.5× to 4× at about preflood stage, alone or 2 weeks after 1× Imazethapyr
Source text: (§1) FIG. 3A to FIG. 3I illustrate the results of Example 1: FIG. 3A control; FIG. 3B 0.5× Imazamox; FIG. 3C 1× Imazamox; FIG. 3D 2× Imazamox; FIG. 3E 4× Imazamox; FIG. 3F 1× Imazethapyr+0.5× Imazamox; FIG. 3G 1× Imazethapyr+1× Imazamox; FIG. 3H 1× Imazethapyr+2× Imazamox; FIG. 3I 1× Imazethapyr+4× Imazamox; Pots L to R: LF2-RTC2/LM1-RTC1, LF1-RTC2/LM1-RTC1, LF3-RTC2\LM4-RTC1, mutated line P1003A205V, mutated line R0146G654E, sensitive control commercial variety Cypress, commercial hybrid CLXL745.
(§2) Trial consisted of 2 treatment regimens with Imazamox applications at approximately the preflood stage with rates of 0.5×, 1×, 2×, or 4×, either alone or 2 weeks following application of 1× Imazethapyr.
(§3) FIG. 4 Representative Pots 4 Weeks Post Application of Imazamox.

[2] = tested on: RT IMI hybrids (LF2-RTC2/LM1-RTC1, LF1-RTC2/LM1-RTC1, LF3-RTC2\LM4-RTC1); assay: 16GH-T7 greenhouse Imazamox trial, injury in RT IMI hybrids; details: Imazamox 0.5×, 1×, 2× or 4× at about preflood stage, alone or 2 weeks after 1× Imazethapyr, any treatment
Source text: as §1, §2, §3

G654E/A205V hybrids = assay: 16-T7 log sprayer trial, Imazethapyr, G654E/A205V hybrids; details: single application, half-step log sprayer, rates 16× to 1/128×; either hybrid
A205V-G654E hybrids = assay: 15SA-T9 IMI conversion efficacy trial; details: 2 applications (2 leaf and preflood)
Protocol: 2 leaf and preflood application of IMI herbicide on materials converted with RiceTec IMI traits and controls. All males included RTC1 (A205V) in their genome. Females with RTC2 (G654E) were not included due to limited seed numbers. Females were tested separately in 15GH-T8 using potted plant replications.

[3] = tested on: G654E (RTC2) homozygous line; assay: 16-T7 log sprayer trial, Imazethapyr, homozygous G654E line; details: single application, half-step log sprayer, rates 16× to 1/128×
[4] = tested on: heterozygous A205V hybrids; details: 2 leaf and preflood application
Source text: Trial: 2 leaf and preflood application of Imazethapyr or Kifix™ (imazapic/imazapir) herbicide on materials converted with RiceTec IMI traits and commercial IMI control.

[5] = tested on: homozygous A205V (RTC1) mutant line (P1003A205V); assay: 16-T7 log sprayer trial, Imazethapyr, homozygous A205V line; details: single application, all tested rates 8× (48 oz/acre) and lower

| Structure (SMILES) | injury [1] | injury [2] | % of injury 3 weeks post 3-4 leaf application (G654E/A205V hybrids) | injury rates (A205V-G654E hybrids) | % of injury 3 weeks post 3-4 leaf application [3] | tolerance as compared to the A205V-G654E hybrids [4] | % of injury 3 weeks post 3-4 leaf application [5] |
| --- | --- | --- | --- | --- | --- | --- | --- |
| COCc1cnc(C2=NC(C)(C(C)C)C(=O)N2)c(C(=O)O)c1 (stereo not shown) [Imazamox, imazamox] | injury was observed | No injury |  |  |  |  |  |
| CCc1cnc(C2=NC(C)(C(C)C)C(=O)N2)c(C(=O)O)c1 (stereo not shown) [Imazethapyr, imazethapyr] |  |  | no observed injury | very low injury rates | lower than expected | reduced tolerance | below 10% |
